Test results reported in US8465778B2, “Method of making tyrosine kinase microspheres” (Allergan, Inc., priority 2004, dated 2013).
≈ marks a conversion by molar mass, not a printed value. Like-named read-outs stand apart in the source and are kept apart here. Values belong to the compound of their own block, whether it stands above or below them.

What was measured:
[1] = In vitro TKI release from PLGA/PLA implants (Example 2); format: physicochemical; details: for period of in-vitro release from implants: implants in release medium, 37° C.
Method: TKI release from the implants was assessed in vitro. Implants were placed into vials containing release medium and shaken at 37° C. At the appropriate time points a sample was taken from the release medium for analysis and the medium totally replaced to maintain sink conditions. Drug in the sample was assayed by HPLC and the cumulative percent release of drug from the implant noted as a function of time. The in vitro release profiles of AGN 200954, AGN 202314, AGN 201635 and AGN 202564 are depicted in FIGS. 3 through 10, respectively.

[2] = Intravitreal pharmacokinetics of TKIs in fluid compositions after a single intravitreal injection; details: female, albino, rabbit, vitreous humor, other: intravitreal injection
Method: (§1) Vitreous humor samples (n=4 eyes per timepoint) were collected at 0.5, 1, 2, 4, 8, and 12 hr postdose. The TKI concentration in the vitreous humor was determined using a liquid chromatography tandem mass spectrometry method (LC-MS/MS).

[3] = Physicochemical properties of the TKIs (solubility, log P, log D, pKa; Tables 2, 11, 13); details: for logP: n-octanol/water, Table 2; for solubility: pH 7, aqueous buffer
Method: Tyrosine kinase inhibitors were incorporated into PLGA or PLA implants by extrusion. The TKIs were milled with the polymers at certain ratios then extruded into filaments. These filaments were subsequently cut into implants weighing approximately 1 mg. Several TKIs were formulated in the PLGA and PLA implants based on their potencies and physicochemical properties as shown in Table 2.
We developed a new (oil in water) process for making active agent microspheres (FIG. 23). This new process for making microspheres can be used with any small molecule which is slightly soluble in water and organic solvents and which is able to preferentially crystallize in organic solvents. Such small molecules include those which have a Log P greater than or equal to four. P, the partition coefficient, is defined as the ratio of the equilibrium concentration (Ci) of a dissolved substance in a two-phase system consisting of two largely immiscible solvents, for example the ratio of n-octanol (Co) to water (Cw).
Using our new process, each of the five different TKIs shown by FIG. 24 were separately incorporated into PLGA biodegradable microspheres. In FIG. 24 the five TKIs shown are identified as follows: first (uppermost) row: 206639 and 205558; second (middle) row: 206320 and 206316, and; bottom row: 206784. The properties of these five TKIs are set forth in Table 13, where “DSC” means differential scanning calorimetry and endotherms are noted in degrees Celsius (used to determine presence of TKI crystals).

in vivo = details: female, albino, rabbit
Method: as §1

[4] = In vivo pharmacokinetics of AGN 202314 subconjunctival PLGA implants and PLA microspheres; details: rabbit; for concentration at 8 day: Day 8
Method: Subconjunctival implants, PLGA (1200 μg AGN 202314 dose; three implants) and PLA microspheres (300 μg AGN 202314) were implanted subconjunctivally. At days 8, 15, 31 and 61 rabbits were sacrificed and the vitreous humor, lens, aqueous humor and plasma assayed for AGN 202314.

[5] = In vivo pharmacokinetics of AGN 202314 intravitreal PLGA implants; set-up: species or system rabbit
Method: Implants containing AGN 202314 were placed intravitreally or subconjunctivally in an eye. The implants released AGN 202314 in-vitro over a 14 day period (FIG. 3.). The intent of this study was to achieve an intravitreal in-vivo/in-vitro correlation with the intravitreal implants and assess the feasibility of periocular delivery.
Intravitreal Implants, PLGA (400 μg AGN 202314 dose, 1 mg total implant weight), were implanted by surgical incision into the mid vitreous of albino rabbits. At days 8, 15, 31 and 61 rabbits were sacrificed and the vitreous humor, lens, aqueous humor and plasma assayed for AGN 202314.

[6] = Stability of AGN 201634 standard solution in DI water/acetonitrile at 4° C.; format: physicochemical; details: DI water/acetonitrile (75%/25%) at 4° C.
Method: The stability of AGN 201634 standard solution in deionized water/acetonitrile (75%/25%) was examined at 4° C., and the results are summarized in the following table. The concentration of standard solution was from 0.0695 μg/mL to 8.693 μg/mL, and was analyzed on day 14, 21, and 35.
Stability of AGN 201634 standard solution of various concentrations in DI water/acetonitrile (75%/25%) at 4° C. (Table 9).

[7] = In vitro release of AGN 201634 from PDLG/PDL implants in different media; format: physicochemical
Method: TKI release was examined for implants made from poly (D,L-lactide-co-glycolide) (PDLG) or poly (D,L-lactide) (PDL) in different media with or without addition of detergent at 37° C. in a shaking water bath.
TKI release was examined in various medium, including saline, phosphate buffer saline of pH 7.4, 50 mM bicarbonate buffer of pH 6.0±0.1 with 0.1% cetyltrimethylammonium bromide (CTAB), and 50 mM borate buffer of pH 8.5±0.1 with 0.5% sodium dodecyl sulfate (SDS) in a shaking water bath (Precision) at 37° C. Sample was incubated in 10 mL of medium, and was totally replaced with fresh medium at each sampling time. Drug concentration was determined by HPLC using a Waters 2690 Separation Module equipped with a Waters XTerra RP8 column (3.9×150 mm, 5 μm, equilibrated at ambient) and a Waters 996 photodiode array detector (set at 238 nm) using 0.1% acetic acid in acetonitrile/water (40/60 by volume) as the mobile phase under a flow rate of 1.2 mL/min. The column was equilibrated with mobile phase for at least 30 min before initiating any sample injection.
The DDS was incubated in a vial of either 40 or 20 mL, and 10 mL sample solution was replaced by same volume of fresh medium, respectively, at each sampling time. The release profiles in saline and PBS were obviously different. Less than 5% of TKI was released in saline during the first 70 days. In contrast, less than 5% of AGN 201634 was released at the first 3 weeks when DDS was incubated in PBS, the same as in saline, but more than 80% of AGN 201634 was released after 70 days. […] It seems that release medium plans an important role in the variation of release profile instead of incubation volume. Due to this slow and diverged release profile, the release profile of Formulation 2 was not performed since its formulation was based on the same polymer with a lower drug loading.
For F3, more than 50%, 45%, and 75% TKI was released at the first 3, 7, and 2 weeks, when DDS was incubated in a medium of pH 6.0 (with 0.1% CTAB), 7.4 (PBS) and 8.5 (with 0.5% SDS), respectively. […]

[8] = Stability of TKI in Formulations 3 and 4 in media of pH 6.0, 7.4 or 8.5; format: physicochemical
Method: To examine the stability of TKI in formulation, Formulations 3 and 4 were prepared to various concentration in a medium of pH 6.0, 7.4 or 8.5, respectively, and subjected to an incubation condition of either 7 days under ambient condition or 14 days at 4° C., and the results are summarized in the following table.

[9] = Day 31, subconjunctival PLGA implants, 3 rods, total 1.2 mg AGN 202314
[10] = Day 61, subconjunctival PLGA implants, 3 rods, total 1.2 mg AGN 202314

- period of in-vitro delivery from formulations ([1]; 1 mg Purac PLA implants): four
- period of drug release in vitro ([1]; AGN 202314 implant): two
- period of in-vitro release from implants [1]: 14 days
- pKa [3]: 9.68
- logP [3]: 3.8
- solubility [3]: 202 µg/mL (≈ 547 µM)
- Retina AGN 202314 concentration ([4]; Day 15, subconjunctival PLGA implants, 3 rods, total 1.2 mg AGN 202314): BLQ (BLQ: Retina and lens: <5 ng/g)
- Lens AGN 202314 concentration [4, 9]: BLQ (BLQ: Retina and lens: <5 ng/g)
- Retina AGN 202314 concentration [4, 9]: BLQ (BLQ: Retina and lens: <5 ng/g)
- Lens AGN 202314 concentration [4, 10]: BLQ (BLQ: Retina and lens: <5 ng/g)
- Retina AGN 202314 concentration [4, 10]: BLQ (BLQ: Retina and lens: <5 ng/g)
- concentration at 8 day ([4]; aqueous humor, other: subconjunctival implant, subconjunctival PLGA implants, 3 rods, total 1.2 mg AGN 202314, read-out: Aqueous Humor AGN 202314 concentration): 6.38 ng/mL
- concentration at 8 day ([4]; lens, other: subconjunctival implant, subconjunctival PLGA implants, 3 rods, total 1.2 mg AGN 202314, read-out: Lens AGN 202314 concentration): 229 ng/g
- concentration at 15 day ([4]; lens, other: subconjunctival implant, Day 15, subconjunctival PLGA implants, 3 rods, total 1.2 mg AGN 202314): 7.93 ng/g
- concentration at 8 day ([4]; retina, other: subconjunctival implant, subconjunctival PLGA implants, 3 rods, total 1.2 mg AGN 202314, read-out: Retina AGN 202314 concentration): 63.8 ng/g
- periocular delivery to the vitreous and retina ([4]; subconjunctival implants and microspheres): unsuccessful
- plasma levels ([5]; all time points (days 8, 15, 31, 61), implants in rabbit eye): BLQ or extremely low
- period of drug release in vivo ([5]; intravitreal PLGA implant, albino rabbit): two
Structure (SMILES): CCN(CC)CCOc1ccc(NC=C2C(=O)Nc3cc(F)ccc32)cc1 [AGN 202314]

- pKa [3]: 9.65
- logP [3]: 3.66
- solubility [3]: 41 µg/mL (≈ 113 µM)
Structure (SMILES): Cc1cccc2c1C(=CNc1ccc(CCN3CCCCC3)cc1)C(=O)N2 [AGN 202560]

- logP [3]: 1.25
- solubility [3]: 88 µg/mL (≈ 271 µM)
- stability of solution [6]: more than 35 days
- duration of controlled release in vitro ([7]; medium of pH 6.0): more than 5 months
- duration of controlled release in vitro ([7]; medium of pH 7.4): more than 5 months
- duration of controlled release in vitro ([7]; medium of pH 8.5): more than 4 weeks
- stability of DDS solution in various pH medium ([8]; 4° C.): > 14 days
- stability of DDS solution in various pH medium ([8]; ambient condition): more than 7 days
Structure (SMILES): O=C(O)CC1O/C(=C2/C(=O)Nc3cc(F)ccc32)c2ccccc21 (centres unmarked) [AGN 201634]

Continued, compound first:

Structure (SMILES): Nc1ccc2c(c1)C(=C1C(=O)Nc3ccc(Cl)cc31)OC2 [AGN 200954, 3-(6-Amino-3H-isobenzofuran-1-ylidene)-5-chloro-1,3-dihydro-indol-2-one]
- period of in-vitro release from implants [1]: 180 days
- Vd [2]: 0.000705 L
- half-life [2]: 2.59 h
- logP [3]: 2.21
- solubility [3]: 0.3 µg/mL (≈ 1 µM)
- clearance (in vivo): 0.00433 mL/min

Structure (SMILES): O=C1Nc2ccccc2C1=CNc1ccc(N2CCOCC2)cc1 [AGN 199659, 3-[(4-Morpholin-4-yl-phenylamino)-methylene]-1,3-dihydro-indol-2-one]
- Vd (in vivo): 0.000255 L
- clearance (in vivo): 0.00387 mL/min
- half-life (in vivo): 1.21 h
